# In patent publication US6784203B1, “Cytokine production inhibitors” (Cubist Pharmaceuticals, Inc., priority 2001, dated 2004):
# How the values were obtained:
# [1] = system: TNF-α; experiment: TNF-α release from U937 cells (LPS-induced, DELFIA); type: cell-based; details: Homo sapiens, U-937; for IC50: PMA-pretreated U937 cells, 1 ng/ml LPS, 18 hours, read-out: IC50 LPS-induced TNF production in U937 cells
# Protocol: The effect of the compounds of the invention on TNF-α release was investigated using a known method (Lozanski, G. et al., (1992), J. Rheumatol; 19, 921-26).
# The human histolytic lymphoma U937 cell line was obtained from a commercial source (ECACC, Salisbury, UK) and maintained in RPMI 1640 medium supplemented with 2 mM L-glutamine and 5% fetal bovine serum. The cells were pretreated with 25 ng/ml PMA for six hours and then exposed to dose ranges of the compound to be tested followed by the addition of 1 ng/ml LPS.
# After 18 hours incubation at 37° C. with 5% CO2 the cell culture supernatants were harvested and stored at −70° C., until required for determination of TNF-α secretion by Dissociation Enhanced Lanthanide Fluorescence Immuno Assay (DELFIA). The effect of the compounds on cell cytotoxicity was measured using the tetrazolium salt, XTT (2,3-bis[2-methoxy-4-nitro-5-sulphophenyl]-2H-tetrazolium-5-carboxanilide salt) and effects on protein synthesis were determined by investigation of [^3H] Leucine uptake.
# [2] = system: IL-1β; experiment: IL-1β release from human monocytes (LPS-induced, ELISA); type: cell-based; details: Monocyte; for IC50: human monocytes, 1 ng/ml LPS, 18 hours, read-out: IC50 LPS-induced IL-β production (monocytes)
# Excerpt: The effect of the compounds of the invention on IL-Iβ release was investigated using a known method (Bakouche, O. et al., (1992), J. Immunol: 148, 84-91). Human monocytes were purified by elutriation from Buffy coats obtained from normal healthy donors after the separation of peripheral blood mononuclear cells (PBMC) on Lymphoprep. The freshly isolated monocytes were suspended in RPMI 1640 supplemented with 5% FBS and exposed to dose ranges of the compound to be tested followed by the addition of 1 ng/ml LPS. Cells were incubated for 18 hours at 37° C. with 5% CO2 and the cell culture supernatants harvested and stored at −70° C. Effects on the production of IL-1β were determined using an ELISA.
Compound,IC50 [1] [nM],inhibition at 0.01 µM ([1]; concentration 0.01 μM) [%],inhibition at 0.04 µM ([1]; concentration 0.04 μM) [%],inhibition at 0.17 µM ([1]; concentration 0.17 μM) [%],inhibition at 0.7 µM ([1]; concentration 0.7 μM) [%],inhibition at 2.8 µM ([1]; concentration 2.8 μM) [%],"inhibition at 0.044 µM ([2]; Homo sapiens, concentration 0.044 μM) [%]","inhibition at 0.22 µM ([2]; Homo sapiens, concentration 0.22 μM) [%]","inhibition at 1.1 µM ([2]; Homo sapiens, concentration 1.1 μM) [%]","inhibition at 5.5 µM ([2]; Homo sapiens, concentration 5.5 μM) [%]",IC50 [2] [nM],inhibition at 0.12 µM ([1]; concentration 0.12 μM) [%],inhibition at 0.5 µM ([1]; concentration 0.5 μM) [%],inhibition at 2 µM ([1]; concentration 2 μM) [%],inhibition at 8 µM ([1]; concentration 8 μM) [%],"inhibition at 0.5 µM ([2]; Homo sapiens, concentration 0.5 μM) [%]","inhibition at 2 µM ([2]; Homo sapiens, concentration 2 μM) [%]","inhibition at 20 µM ([2]; Homo sapiens, concentration 20 μM) [%]"
"C/C=C/[C@@H]1OC(=O)C=C[C@@H]1C(=O)/C=C/C(C)=C/[C@@H](C)CCCCCC [R in formula (I) is CH3, 3-((5S,6S)-5,6-dihydro-5-((6S)-4,6-dimethyldodeca-2E,4E-dienoyl)-2H-pyran-2-on-6-yl)-prop-2E-ene]",80,0.85,20,61,90,99,23,41,72,88,190,,,,,,,
"CCCCCC[C@H](C)/C=C(C)/C=C/C(=O)[C@H]1C=CC(=O)O[C@H]1/C=C/C(=O)O [R in formula (I) is CO2H, 3-((5S,6S)-5,6-dihydro-5-((6S)-4,6-dimethyldodeca-2E,4E-dienoyl)-2H-pyran-2-on-6-yl)-prop-2E-enoic acid]",2000,,,,,,,,,,2000,47,77,100,107,14,81.5,99
